Patent publication US8716242B2, “β-hairpin peptidomimetics” (priority 2009, dated 2014)
Like-named read-outs stand apart in the source and are kept apart here. Numbered stars: 1 amine (or outer) side, 2 acyl side, 3 side chain; on linkers, the order of the positions; unused ones are H or OH. Bridge positions count the residues as written; N and C are the ends. Square brackets hold non-standard residues; d marks the D form. Peptide text beside a SMILES is read from it. * marks the point of attachment. X2 = CCCCCCCCCC[C@@H](N[*:1])C(=O)[*:2]; Lauroyl = CCCCCCCCCCCC(=O)*; Decanoyl = CCCCCCCCCC(=O)*; Octanoyl = CCCCCCCC(=O)*; Dab = NCC[C@H](N)C(=O)O; Dodecyl = CCCCCCCCCCCC*

How the values were obtained:
human CXCR4 = target: T1, human CXCR4 (Homo sapiens, UniProt P61073); assay: Ca2+-assay: CXCR4-antagonizing activity (SDF-1 induced calcium mobilization); format: cell-based
T1 construct: expressed in transfected cells; host or cells: mouse pre-B cell line 300-19
Source text: 2.3. Ca^2+-Assay: CXCR4-Antagonizing Activity of the Peptides
Increases in intracellular calcium were monitored using a Flexstation 384 (Molecular Devices, Sunnyvale, Calif.) to assay the peptides for CXCR4 antagonism in a mouse pre-B cell line 300-19 stably transfected with human CXCR4 (E. Oberlin, A. Amara, F. Bachelerie, C. Bessia, J.-L. Virelizier, F. Arenzana-Seisdedos, O, Schwartz, J.-M. Heard, I. Clark-Lewis, D. F. Legler, M. Loetscher, M. Baggiolini, B. Moser, Nature 1996, 382, 833-835; M. Loetscher, T. Geiser, T. O'Reilly, R. Zwalen, M. Baggiolini, B. Moser, J. Biol. Chem. 1994, 269, 232-237; M. D'Apuuo, A. Rolink, M. Loetscher, J. A. Hoxie, I. Clark-Lewis, F. Melchors, M. Baggiolini, B. Moser, Eur. J. Immunol. 1997, 27, 1788-1793). The cells were batch loaded with the Calcium 4 Assay kit (Molecular Devices) in assay buffer (Hanks Balanced salt solution [HBSS], 20 mM HEPES, pH 7.4, 0.1% BSA) for 1 h at room temperature and labeled cells were dispensed into black well assays plates (Costar No. 3603). Calcium mobilization induced by stromal-derived factor-1 (SDF-1) was measured in the Flexstation 384 (excitation: 485 nm; emission: 525 nm) for 90 seconds. Antagonist activity of peptides was determined by spiking the cells with compounds prior to SDF-1 addition. Dose response curves (compound concentration versus % maximum response for SDF-1) were determined for each antagonist and IC50 values were calculated by fitting the data to a four parameter logistic equation using SoftmaxPro 4.8 (Molecular Devices).

[1] = Cytotoxicity, MTT reduction assay, HELA cells; format: cell-based; details: human, HELA cells (Acc57), 12.5-50 μM
Method: (§1) Mouse pre-B cells were cultured in RPMI1640 plus 5% FBS, antibiotic/antimycotic, non essential amino acid, 50 μM β-mercaptoethanol and 1 mM natrium pyruvate. HELA cells were maintained in RPMI1640 plus 10% FBS, pen/strept and 2 mM L-glutamine. Cos-7 cells were grown in DMEM medium with […] glucose supplemented with 10% FCS, pen/strept and 2 mM L-glutamine. All cell lines were grown at 37° C. at 5% CO2. Cell media, media supplements, PBS-buffer, HEPES, antibiotic/antimycotic, pen/strept, non essential amino acid, L-glutamine, β-mercaptoethanol and sera were purchased from Gibco (Pailsey, UK). All fine chemicals were supplied by Merck (Darmstadt, Germany).
(§2) The cytotoxicity of the peptides to HELA cells (Acc57) and COS-7 cells (CRL-1651) was determined using the MTT reduction assay (T. Mossman, J. Immunol. Meth. 1983, 65, 55-63; M. V. Berridge, A. S. Tan, Arch. Biochem. Biophys. 1993, 303, 474-482). Briefly, the method was as follows: 4000 HELA cells/well and 3400 COS-7 cells/well were seeded and grown in 96-well microtiter plates for 24 h at 37° C. at 5% CO2. Thereafter, time zero (Tz) was determined by MTT reduction (see below). The supernatant of the remaining wells was discarded, and fresh medium and compounds in serial dilutions (12.5, 25 and 50 μM, triplicates) were pipetted into the wells. After incubation of the cells for 48 h at 37° C. at 5% CO2 the supernatant was discarded again and 100 μL MTT reagent (0.5 mg/mL in RPMI1640 and DMEM, respectively)/well was added. Following incubation at 37° C. for 2-4 h the media were aspirated and the cells were spiked (100 μL isopropanol/well). The absorbance of the solubilized formazan was measured at 595 nm (OD595peptide). For each concentration averages were calculated from triplicates. The percentage of growth was calculated as follows: (OD595peptide-OD595Tz-OD595Empty well)/(OD595Tz-OD595Empty well)×100%. The GI50 (Growth Inhibition) concentrations were calculated for each peptide by using a trend line function for the concentrations (50, 25, 12.5 and 0 μM), the corresponding percentages and the value 50, (=TREND (C50: C0, %50:%0,50).

[2] = Cytotoxicity, MTT reduction assay, COS-7 cells; format: cell-based; details: African green monkey, COS-7 cells (CRL-1651), 12.5-50 μM
Method: as §1, §2

[3] = tested on: human red blood cells (hRBC); assay: Hemolysis of human red blood cells; format: cell-based; details: 20% hRBC, 1 h, 37° C.
Method: The peptides were tested for their hemolytic activity against human red blood cells (hRBC). Fresh hRBC were washed three times with phosphate buffered saline (PBS) and centrifuged for 10 min at 2000×g. Compounds (100 μM) were incubated with 20% hRBC (v/v) for 1 h at 37° C. and shaking at 300 rpm. The final erythrocyte concentration was approximately 0.9×10^9 cells/mL. A value of 0% and 100% cell lyses, respectively, was determined by incubation of hRBC in the presence of PBS containing 0.001% acetic acid and 2.5% Triton X-100 in H2O, respectively. The samples were centrifuged, the supernatants were 8-fold diluted in PBS buffer and the optical densities (OD) were measured at 540 nm. The 100% lyses value (OD540H2O) gave an OD540 of approximately 0.5-1.0.
(§3) Percent hemolysis was calculated as follows: (OD540peptide/OD540H2O)×100%. 2.6. Plasma Stability

[4] = Plasma stability in human plasma; format: in vitro ADME; details: human plasma, 37° C.; for remaining at 24 h, 10 μM: 1440 min, read-out: human pl. cpd left at 1440 min; for human pl. T1/2: up to 1440 min
Method: as §3
(§4) The stability of the peptides in human and mouse plasma was determined by applying the following method: 346.5 μL/deep well of freshly thawed human plasma (Basler Blutspendedienst) and mouse plasma (Harlan Sera-Lab, UK), respectively, were spiked with 3.5 μL/well of compound dissolved in DMSO/H2O ([…] [v/v], 1 mM, triplicate) and incubated at 37° C. At t=0, 15, 30, 60, 120, 240 and 1440 min aliquots of 50 μL were transferred to filtration plate wells containing 150 μL/well of 2% formic acid in acetonitrile. Following shaking for 2 min the occurred suspensions were filtrated by vacuum and 50 μL of each filtrate was mixed with 100 μL of 1% formic acid in H2O. After transfer to a propylene microtiter plate, the filtrates were analyzed by LC/MS as follows: Column: Waters, XBridge C18, mobile phases: (A) water+0.1% formic acid and (B) acetonitrile/water, 95/5 (v/v)+0.1% formic acid, gradient: 5%-100% (B) in 2 minutes, electrospray ionization, MRM detection (triple quadrupole). The peak areas were determined and triplicate values are averaged. The stability is expressed in percent of the initial value at t=0. (tx/t0×100). By using the TREND function of EXCEL (Microsoft Office 2003) T1/2 were determined.

[5] = Plasma stability in mouse plasma; format: in vitro ADME; details: mouse plasma, 37° C.; for remaining at 24 h, 10 μM: 1440 min, read-out: mouse pl. cpd left at 1440 min; for mouse pl. T1/2 / half-life at 10 μM: up to 1440 min; for half-life at 10 μM: read-out: mouse pl. T1/2
Method: as §3, §4

[6] = mouse pre-B cell line 300-19 transfected with human CXCR4, SDF-1 induced Ca2+ mobilization, read-out: IC50% [nM] ± SD, CXCR4 receptor

T1 sequence (P61073 whole entry): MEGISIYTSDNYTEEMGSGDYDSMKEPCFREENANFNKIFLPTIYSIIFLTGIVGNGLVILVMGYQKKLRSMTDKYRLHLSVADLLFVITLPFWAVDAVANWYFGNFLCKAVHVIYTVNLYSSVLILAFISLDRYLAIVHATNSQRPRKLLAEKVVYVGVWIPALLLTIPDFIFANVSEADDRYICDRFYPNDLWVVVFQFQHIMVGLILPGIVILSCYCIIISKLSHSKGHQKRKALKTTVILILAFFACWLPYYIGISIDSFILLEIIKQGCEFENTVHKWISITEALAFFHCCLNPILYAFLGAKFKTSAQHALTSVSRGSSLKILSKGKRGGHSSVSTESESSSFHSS

CCCCCCCCCCCC(=O)NCC[C@@H]1NC(=O)[C@H]2CCCN2C(=O)[C@H](C)NC(=O)[C@H](CCCNC(=N)N)NC(=O)[C@@H]2CSSC[C@H](NC(=O)[C@H](Cc3ccc(O)cc3)NC(=O)[C@H](CCCNC(=N)N)NC1=O)C(=O)N[C@@H](Cc1ccc(O)cc1)C(=O)N[C@@H](CCC(N)=O)C(=O)N[C@@H](CCCCN)C(=O)N1CCC[C@@H]1C(=O)N1CCC[C@H]1C(=O)N[C@@H](Cc1ccc(O)cc1)C(=O)N[C@@H](Cc1c[nH]cn1)C(=O)N[C@@H](C)C(=O)N2 [Ex. 5] (cyclo(YHACRA[dP][Dab](Lauroyl)RYCYQK[dP]P); disulfide 4-11)
IC50 (human CXCR4): 95.5 ± 12 nM
GI50 at 48 h [1]: > 50 µM
GI50 at 48 h [2]: > 43 µM
Hemolysis at 100 μM [3]: 0.3%
remaining at 24 h, 10 μM [4]: 100%
human pl. T1/2 [4]: 24 h
remaining at 24 h, 10 μM [5]: 73%
mouse pl. T1/2 [5]: 24 h

CCCCCCCCCCCCOc1ccc(C[C@@H]2NC(=O)[C@H](CCCNC(=N)N)NC(=O)[C@H](CCN)NC(=O)[C@H]3CCCN3C(=O)[C@H](C)NC(=O)[C@H](CCCNC(=N)N)NC(=O)[C@@H]3CSSC[C@H](NC2=O)C(=O)N[C@@H](Cc2ccc(O)cc2)C(=O)N[C@@H](CCC(N)=O)C(=O)N[C@@H](CCCCN)C(=O)N2CCC[C@@H]2C(=O)N2CCC[C@H]2C(=O)N[C@@H](Cc2ccc(O)cc2)C(=O)N[C@@H](Cc2c[nH]cn2)C(=O)N[C@@H](C)C(=O)N3)cc1 [Ex. 7] (cyclo(YHACRA[dP][Dab]RY(Dodecyl)CYQK[dP]P); disulfide 4-11)
IC50 (human CXCR4): 59.8 ± 27 nM
GI50 at 48 h [1]: > 35 µM
GI50 at 48 h [2]: > 50 µM
Hemolysis at 100 μM [3]: 11.5%
remaining at 24 h, 10 μM [4]: 67%
human pl. T1/2 [4]: 24 h
remaining at 24 h, 10 μM [5]: 87%
mouse pl. T1/2 [5]: 24 h

CCCCCCCCCC[C@H]1NC(=O)[C@H](Cc2ccc(O)cc2)NC(=O)[C@@H]2CSSC[C@H](NC(=O)[C@H](C)NC(=O)[C@H](Cc3c[nH]cn3)NC(=O)[C@H](Cc3ccc(O)cc3)NC(=O)[C@@H]3CCCN3C(=O)[C@H]3CCCN3C(=O)[C@H](CCCCN)NC1=O)C(=O)N[C@@H](CCCNC(=N)N)C(=O)N[C@@H](C)C(=O)N1CCC[C@@H]1C(=O)N[C@@H](CCN)C(=O)N[C@@H](CCCNC(=N)N)C(=O)N[C@@H](Cc1ccc(O)cc1)C(=O)N2 [Ex. 9] (cyclo(YHACRA[dP][Dab]RYCY[X2]K[dP]P); disulfide 4-11)
IC50 (human CXCR4; [6]): 91.3 ± 19 nM
GI50 at 48 h [1]: > 13 µM
GI50 at 48 h [2]: > 50 µM
Hemolysis at 100 μM [3]: 2.2%
remaining at 24 h, 10 μM [4]: 100%
human pl. T1/2 [4]: 24 h
remaining at 24 h, 10 μM [5]: 76%
mouse pl. T1/2 [5]: 24 h

CCCCCCCCCC(=O)NCC[C@@H]1NC(=O)[C@H](Cc2ccc(O)cc2)NC(=O)[C@@H]2CSSC[C@H](NC(=O)[C@H](C)NC(=O)[C@H](Cc3c[nH]cn3)NC(=O)[C@H](Cc3ccc(O)cc3)NC(=O)[C@@H]3CCCN3C(=O)[C@H]3CCCN3C(=O)[C@H](CCCCN)NC1=O)C(=O)N[C@@H](CCCNC(=N)N)C(=O)N[C@@H](C)C(=O)N1CCC[C@@H]1C(=O)N[C@@H](CCN)C(=O)N[C@@H](CCCNC(=N)N)C(=O)N[C@@H](Cc1ccc(O)cc1)C(=O)N2 [Ex. 10] (cyclo(YHACRA[dP][Dab]RYCY[Dab](Decanoyl)K[dP]P); disulfide 4-11)
IC50 (human CXCR4; [6]): 8.1 ± 0.9 nM
GI50 at 48 h [1]: > 50 µM
GI50 at 48 h [2]: > 50 µM
Hemolysis at 100 μM [3]: 1.0%
remaining at 24 h, 10 μM [4]: 85%
human pl. T1/2 [4]: 24 h
remaining at 24 h, 10 μM [5]: 63%
mouse pl. T1/2 [5]: 24 h

CCCCCCCC(=O)NCCCC[C@@H]1NC(=O)[C@H](Cc2ccc(O)cc2)NC(=O)[C@@H]2CSSC[C@H](NC(=O)[C@H](Cc3ccc(O)cc3)NC(=O)[C@H](Cc3c[nH]cn3)NC(=O)[C@H](Cc3ccc(O)cc3)NC(=O)[C@@H]3CCCN3C(=O)[C@H]3CCCN3C(=O)[C@H](CCCCN)NC1=O)C(=O)N[C@@H](CO)C(=O)N[C@@H](C)C(=O)N1CCC[C@@H]1C(=O)N[C@@H](CCN)C(=O)N[C@@H](CCCNC(=N)N)C(=O)N[C@@H](Cc1ccc(O)cc1)C(=O)N2 [Ex. 12] (cyclo(YHYCSA[dP][Dab]RYCYK(Octanoyl)K[dP]P); disulfide 4-11)
IC50 (human CXCR4; [6]): 1.8 ± 1 nM
GI50 at 48 h [1]: > 50 µM
GI50 at 48 h [2]: > 50 µM
Hemolysis at 100 μM [3]: 0.2%
remaining at 24 h, 10 μM [4]: 88%
human pl. T1/2 [4]: 24 h
remaining at 24 h, 10 μM [5]: 46%
half-life at 10 μM [5]: 7 h

CCCCCCCC(=O)NCCCC[C@@H]1NC(=O)[C@H](Cc2ccc(O)cc2)NC(=O)[C@@H]2CSSC[C@H](NC(=O)[C@H](Cc3ccc(O)cc3)NC(=O)[C@H](Cc3c[nH]cn3)NC(=O)[C@H](Cc3ccc(O)cc3)NC(=O)[C@@H]3CCCN3C(=O)[C@@H](Cc3ccc(O)cc3)NC(=O)[C@H](CCCCN)NC1=O)C(=O)N[C@@H](CO)C(=O)N[C@@H](C)C(=O)N1CCC[C@@H]1C(=O)N[C@@H](CCN)C(=O)N[C@@H](CCCNC(=N)N)C(=O)N[C@@H](Cc1ccc(O)cc1)C(=O)N2 [Ex. 13] (cyclo(A[dP][Dab]RYCYK(Octanoyl)K[dY]PYHYCS); disulfide 6-15)
IC50 (human CXCR4; [6]): 6.3 ± 2.7 nM
GI50 at 48 h [1]: > 50 µM
GI50 at 48 h [2]: > 50 µM
Hemolysis at 100 μM [3]: 1.2%
remaining at 24 h, 10 μM [4]: 100%
human pl. T1/2 [4]: 24 h
remaining at 24 h, 10 μM [5]: 72%
half-life at 10 μM [5]: 22.4 h
